The subject of assay [1] is Mus musculus. The assay is described as follows: Protection from audiogenic seizure in the DBA/2 mouse 10 min after intraperitoneal administration. The class given is functional. The conditions noted are these: ip.
In assay [2] the test system is Mus musculus. The assay is described as follows: Protection from audiogenic seizure in the DBA/2 mouse 30 min after oral administration. It is filed as functional. The conditions noted are these: 0.5 h.
For a further assay, the species on record is Rattus norvegicus. In words: Blockade of NMDA-induced depolarizations on rat cortical slices. It is filed as functional.
Assay [3] deals with Glutamate receptor ionotropic, NMDA 1 (Rattus norvegicus, UniProt P35439). The assay is described as follows: Inhibition of the binding of [3H]L-689,560 ([3H]-4) to the strychnine-insensitive glycine site on rat brain membranes. It is filed as cell membranes, Membrane.
For assay [4], the system named is Mus musculus. In words: Protection from audiogenic seizure in the DBA/2 mouse 30 min after intraperitoneal administration. The class given is functional. The conditions noted are these: ip, 0.5 h.

Regarding `Oc1nc2cc(Cl)ccc2c(O)c1-c1cccc(Cc2ccccc2)c1`, the ED50 in the assay with Mus musculus [1] is 1.3 mg/kg; with Mus musculus [2], 3.9 mg/kg. This compound showed a Kb in the assay filed under Rattus norvegicus of 0.087 µM.
Consider `Oc1nc2cc(Cl)ccc2c(O)c1-c1cccc(Cc2ccsc2)c1`, for which the values for the ED50 in the assay with Mus musculus [2] and with Mus musculus [4] were 5.1 mg/kg and 1.5 mg/kg, respectively. Moreover, the Kb in the assay filed under Rattus norvegicus was 0.019 µM. This compound also registered an IC50 in assay [3] of 0.0023 µM.
As to `O=c1[nH]c2cc(Cl)ccc2c(O)c1-c1cccc(Oc2ccccc2)c1`, the ED50 in the assay with Mus musculus [2] and with Mus musculus [4] was 0.9 mg/kg each time. The Kb in the assay filed under Rattus norvegicus was found to be 0.028 µM. The IC50 in assay [3] turned out to be 0.002 µM.
In the assay listed under Rattus norvegicus, `O=C(Nc1ccccc1)N[C@H]1C[C@H](C(=O)O)Nc2cc(Cl)cc(Cl)c21` gave a Kb of 0.11 µM. The same compound returned an IC50 in assay [3] of 0.004 µM. The median effective dose (ED50) with Mus musculus [4] was above 100 mg/kg.
Take `O=C(O)CCc1c(C(=O)O)[nH]c2cc(Cl)cc(Cl)c12`: the Kb in the assay filed under Rattus norvegicus amounted to 1.32 µM. This compound showed an IC50 in assay [3] of 0.069 µM. Moreover, the 50% effective dose (ED50) with Mus musculus [4] was above 100 mg/kg.
On to `O=c1[nH]c2cc(Cl)ccc2c(O)c1-c1ccccc1`, for which the ED50 came to 7.6 mg/kg in the assay with Mus musculus [2] and 4.5 mg/kg in the assay with Mus musculus [4]. The compound further had a Kb in the assay filed under Rattus norvegicus of 0.88 µM. Besides, the IC50 in assay [3] is 0.17 µM.
In the case of `Oc1nc2cc(Cl)ccc2c(O)c1-c1cccc(Oc2ccsc2)c1`, the ED50 in the assay on Mus musculus [2] and with Mus musculus [4] was 0.8 mg/kg each time. In the assay filed under Rattus norvegicus, this compound showed a Kb of 0.005 µM. In assay [3], this compound registered an IC50 of 0.0014 µM.
For `COCOc1ccc(Cc2cccc(-c3c(O)nc4cc(Cl)ccc4c3O)c2)cc1`, the values for the median effective dose (ED50) in the assay on Mus musculus [2] and in the assay on Mus musculus [4] were 0.9 mg/kg and 0.5 mg/kg, respectively. The Kb in the assay filed under Rattus norvegicus turned out to be 0.0032 µM. Also, the IC50 in assay [3] turned out to be 0.0022 µM.
Regarding `COc1ccc(Cc2cccc(-c3c(O)c4ccc(Cl)cc4[nH]c3=O)c2)cc1`, the ED50 in the assay with Mus musculus [2] stood at 0.9 mg/kg; in the assay with Mus musculus [4], 0.7 mg/kg. This compound also displayed a Kb in the assay listed under Rattus norvegicus of 0.025 µM. The compound further registered a 50% inhibitory concentration (IC50) in assay [3] of 0.0045 µM.
In the assay filed under Rattus norvegicus, `O=C(O)c1cc(O)c2c(I)cc(Cl)cc2n1` registered a Kb of 0.41 µM. This compound also yielded a half-inhibitory concentration (IC50) in assay [3] of 0.014 µM. The ED50 in the assay with Mus musculus [4] was above 250 mg/kg.

A word on the ED50: it is the midpoint of the dose-response relation. High values mean a need for a large dose, low ones an effect at a small dose. What is called IC50 is the point on the concentration scale where inhibition reaches its midpoint. A low value points to inhibition by little substance.

The values above are taken from ChEMBL document CHEMBL1127503, “3'-(Arylmethyl)- and 3'-(aryloxy)-3-phenyl-4-hydroxyquinolin-2(1H)-ones: orally active antagonists of the glycine site on the NMDA receptor” (J Med Chem, 1994).
